Measurements as given in US8431557B2, “Treatment of menopause-associated symptoms” (Besins Healthcare Luxembourg SARL, priority 2006, dated 2013).
Read-outs that look alike come from different tables or passages of the source.

Tests used:
menopausal women [1] = assay: Placebo-controlled study: frequency of moderate to severe hot flushes; type: in vivo, human (women); set-up: key to Frequency of Moderate to Severe Hot Flushes, Mean Change from Baseline / Frequency of Moderate to Severe Hot Flushes, Mean: number of moderate-to-severe hot flushes per day; conditions: 0.375 mg dose
Protocol: (§1) This study was a multi-centred, double-blind, placebo-controlled, parallel group comparison. A total of 351 subjects were enrolled at 78 sites in the United States.
(§2) A two-week, medication free, Pre-Treatment Phase was used to determine subject vasomotor symptoms. Efficacy assessments included the number and intensity of hot flushes per day, and severity of vulvar and vaginal atrophy symptoms.
(§3) The three treatment groups comprised the following dosages: • A 0.375 mg dose (1.25 g of gel @ 0.03%) applied to one arm and 0.9 g of placebo gel applied on the other arm once daily for 12 weeks; • A 0.27 mg dose (0.9 g of gel @ 0.03%) applied to one arm and 1.25 g of placebo gel applied on the other arm once daily for 12 weeks; and • 0.9 g of placebo gel applied to one arm and 1.25 g of placebo gel applied on the other arm once daily for 12 weeks.
(§4) The Treatment Phase was 12 weeks. A pre-treatment period of 2 weeks was used to initially evaluate each subject's vasomotor symptoms.
(§5) All data were analyzed using the approach of Observed Cases (OC).
(§6) For all continuous primary and secondary efficacy parameters, descriptive statistics tables and 2-way ANCOVA with fixed factors treatment and centre, and baseline value as covariate were provided. The interaction of treatment and centre was investigated using 2-way ANCOVA with fixed factors treatment, centre, and treatment-by-centre interaction with baseline value as covariate. To control the Type-I error rate, a step-down procedure using contrasts was performed to compare each treatment group to the placebo group. First, the group with the 0.375 mg dose was compared against placebo at the α=0.05 level (2-sided). If the null hypothesis was rejected, the group with the 0.27 mg dose was compared to placebo at the α=0.05 level (2-sided). Graphs were used to characterize the dose response. If the assumptions of the model were not met, then van Elteren's test with centre as the stratification variable was used in the step-down procedure. For categorical data, Fisher's exact test was used to compare treatment groups.
(§7) The study assessed the following variables: • Mean change in frequency of moderate to severe vasomotor symptoms from baseline to Week 4; • Mean change in frequency of moderate to severe vasomotor symptoms from baseline to Week 12; • Mean change in severity of moderate to severe vasomotor symptoms from baseline to Week 4; • Mean change in severity of moderate to severe vasomotor symptoms from baseline to Week 12; • Mean change in frequency of moderate-to-severe hot flushes at each week; • Mean change in severity of moderate-to-severe hot flushes at each week; • Mean change from baseline to Week 12 in the moderate to severe symptom of vulvar and vaginal atrophy that has been identified by the subject as being the most bothersome to her (vaginal pain, dryness, irritation/itching, bleeding, dysuria);
The baseline value was defined as the daily average of moderate to severe hot flushes during the 2 Pre-Treatment Phase weeks. The “daily average” was calculated from “the mean across the reported days at each week or at Pre-Treatment Phase weeks. If only mild hot flushes were reported on any day, the moderate to severe hot flush value for the subject on that day was zero. If less than 10 days of data were available for the baseline period, the baseline daily average was considered missing.
(§8) On a daily basis, the subject recorded the number of hot flushes and rated the intensity of each based on a four-point scale as follows: • 0 (none) • 1 (mild) Sensation of heat without perspiration • 2 (moderate) Sensation of heat with perspiration, but the subject was able to continue with their activity • 3 (severe) Sensation of heat with sweating, sufficiently severe to result in discontinuation of activity Assessment of Vulvar and Vaginal Atrophy Symptom Severity

menopausal women [2] = assay: Placebo-controlled study: severity of moderate to severe hot flushes; type: in vivo, human (women); set-up: key to Severity of Moderate to Severe Hot Flushes, Mean Change from Baseline / Severity of Moderate to Severe Hot Flushes, Mean: 0 none, 1 mild, 2 moderate, 3 severe hot flush intensity; conditions: for Severity of Moderate to Severe Hot Flushes, Mean: Baseline
Protocol: as §1, §2, §3, §4, §5, §6, §7
Severity of moderate to severe vasomotor symptoms was defined as (2*number of moderate hot flushes+3*number of severe hot flushes)/total number of moderate and severe hot flushes.
As with frequency, if less than 10 days of data were available for the baseline period, the baseline severity was considered missing.
as §8

[3] = cited from earlier work
[4] = Plasma concentrations of estradiol and unconjugated estrone (HPLC with MS/MS); type: in vivo, human (women); conditions: for Geometric Mean Concentration of E2 (plasma): Baseline; for concentration at 4 weeks / concentration at 8 weeks / concentration at 12 weeks: female, human, plasma, topical, read-out: Geometric Mean Concentration of E2 (plasma)
Protocol: A single 10 mL sample of whole blood was collected at baseline, Weeks 4, 8, and 12. To eliminate the possibility of sample contamination, only the specimens obtained from the arm not used for estradiol application were reported.

With C[C@]12CC[C@@H]3c4ccc(O)cc4CC[C@H]3[C@@H]1CC[C@@H]2O [estradiol, 17-beta estradiol] as the compound, how does the “Frequency of Moderate to Severe Hot Flushes, Mean Change from Baseline” value (“Frequency … Mean Change from Baseline” below) (menopausal women [1]; Week 6) read?
The value was −7.83.

What about the “Frequency … Mean Change from Baseline” value (menopausal women [1]; Week 7) of the same compound?
Its value is −8.05.

And the “Frequency … Mean Change from Baseline” value (menopausal women [1]; Week 8)?
Its value is −8.49.

And the “Frequency … Mean Change from Baseline” value (menopausal women [1]; Week 9)?
The value was −8.69.

What about the “Frequency … Mean Change from Baseline” value (menopausal women [1]; Week 10) of the same compound?
Its value is −8.47.

And the “Frequency … Mean Change from Baseline” value (menopausal women [1]; Week 11)?
The value was −8.81.

What about the “Frequency … Mean Change from Baseline” value (menopausal women [1]; Week 12) of the same compound?
Its value is −8.76.

What about the “Efficacy vs. placebo, frequency and severity of moderate to severe hot flushes” value (menopausal women [1]; Weeks 4 and 12, all 4 criteria) of the same compound?
The value was “efficacious vs. placebo”.

And the “Week at which statistical significance vs placebo was achieved, severity of moderate to severe hot flushes” value (menopausal women [2]; 0.27 mg dose)?
Its value is 8 Week.

What about the “Severity of Moderate to Severe Hot Flushes, Mean” value (menopausal women [2]; 0.27 mg dose) of the same compound?
Its value is 2.52.

And the “Severity of Moderate to Severe Hot Flushes, Mean Change from Baseline” value (shortened to “Severity of Moderate … Mean Change from Baseline”) (menopausal women [2]; 0.27 mg dose, Week 1)?
Its value is −0.02.

And the “Severity of Moderate … Mean Change from Baseline” value (menopausal women [2]; 0.27 mg dose, Week 2)?
The value was −0.10.

What about the “Severity of Moderate … Mean Change from Baseline” value (menopausal women [2]; 0.27 mg dose, Week 3) of the same compound?
The value was −0.21.

And the “Severity of Moderate … Mean Change from Baseline” value (menopausal women [2]; 0.27 mg dose, Week 4)?
The value was −0.26.

And the “Severity of Moderate … Mean Change from Baseline” value (menopausal women [2]; 0.27 mg dose, Week 5)?
The value was −0.29.

And the “Severity of Moderate … Mean Change from Baseline” value (menopausal women [2]; 0.27 mg dose, Week 6)?
Its value is −0.36.

What about the “Severity of Moderate … Mean Change from Baseline” value (menopausal women [2]; 0.27 mg dose, Week 7) of the same compound?
Its value is −0.40.

And the “Severity of Moderate … Mean Change from Baseline” value (menopausal women [2]; 0.27 mg dose, Week 8)?
Its value is −0.46.

What about the “Severity of Moderate … Mean Change from Baseline” value (menopausal women [2]; 0.27 mg dose, Week 9) of the same compound?
Its value is −0.60.

What about the “Severity of Moderate … Mean Change from Baseline” value (menopausal women [2]; 0.27 mg dose, Week 10) of the same compound?
Its value is −0.58.

And the “Severity of Moderate … Mean Change from Baseline” value (menopausal women [2]; 0.27 mg dose, Week 11)?
The value was −0.66.

What about the “Severity of Moderate … Mean Change from Baseline” value (menopausal women [2]; 0.27 mg dose, Week 12) of the same compound?
Its value is −0.70.

And the “Week at which statistical significance vs placebo was achieved, severity of moderate to severe hot flushes” value (menopausal women [2]; 0.375 mg dose)?
The value was 4 Week.

And the “Severity of Moderate to Severe Hot Flushes, Mean” value (menopausal women [2]; 0.375 mg dose)?
Its value is 2.52.

And the “Severity of Moderate … Mean Change from Baseline” value (menopausal women [2]; 0.375 mg dose, Week 1)?
The value was 0.00.

And the “Severity of Moderate … Mean Change from Baseline” value (menopausal women [2]; 0.375 mg dose, Week 2)?
The value was −0.10.

And the “Severity of Moderate … Mean Change from Baseline” value (menopausal women [2]; 0.375 mg dose, Week 3)?
The value was −0.19.

What about the “Severity of Moderate … Mean Change from Baseline” value (menopausal women [2]; 0.375 mg dose, Week 4) of the same compound?
Its value is −0.31.

And the “Severity of Moderate … Mean Change from Baseline” value (menopausal women [2]; 0.375 mg dose, Week 5)?
Its value is −0.35.

What about the “Severity of Moderate … Mean Change from Baseline” value (menopausal women [2]; 0.375 mg dose, Week 6) of the same compound?
The value was −0.49.

What about the “Severity of Moderate … Mean Change from Baseline” value (menopausal women [2]; 0.375 mg dose, Week 7) of the same compound?
The value was −0.67.

What about the “Severity of Moderate … Mean Change from Baseline” value (menopausal women [2]; 0.375 mg dose, Week 8) of the same compound?
Its value is −0.59.

And the “Severity of Moderate … Mean Change from Baseline” value (menopausal women [2]; 0.375 mg dose, Week 9)?
Its value is −0.77.

What about the “Severity of Moderate … Mean Change from Baseline” value (menopausal women [2]; 0.375 mg dose, Week 10) of the same compound?
Its value is −0.76.

What about the “Severity of Moderate … Mean Change from Baseline” value (menopausal women [2]; 0.375 mg dose, Week 11) of the same compound?
The value was −0.89.

And the “Severity of Moderate … Mean Change from Baseline” value (menopausal women [2]; 0.375 mg dose, Week 12)?
Its value is −0.90.

And the serum estradiol level ([3]; daily topical 0.75 mg dose of estradiol (1.25 g of hydro-alcoholic gel per day))?
The serum estradiol level was “elevation in the serum estradiol level”.

What about the serum estradiol level ([3]; lower estradiol dose than 0.75 mg) of the same compound?
Its serum estradiol level is “did not achieve similar serum levels”.

What about the “Geometric Mean Concentration of E2 (plasma)” value ([4]; 0.270 mg estradiol dose) of the same compound?
The value was 4.2 pg/mL.

What about the “Geometric Mean Concentration of E2 (plasma)” value ([4]; 0.375 mg estradiol dose) of the same compound?
The value was 3.7 pg/mL.

And the concentration at 4 weeks ([4]; 0.27 mg)?
The concentration at 4 weeks was 0.0142 ng/mL.

And the concentration at 8 weeks ([4]; 0.27 mg)?
The concentration at 8 weeks was 0.0156 ng/mL.

What about the concentration at 12 weeks ([4]; 0.27 mg) of the same compound?
Its concentration at 12 weeks is 0.014 ng/mL.

And the concentration at 4 weeks ([4]; 0.375 mg)?
The concentration at 4 weeks was 0.0183 ng/mL.

What about the concentration at 8 weeks ([4]; 0.375 mg) of the same compound?
The concentration at 8 weeks was 0.0158 ng/mL.

And the concentration at 12 weeks ([4]; 0.375 mg)?
Its concentration at 12 weeks is 0.0214 ng/mL.
